Experimental data reported in PMC5824344 (ACS Chemical Biology, 2017).
“Also recorded” adds a separate entry of the source.

What was measured:
[1] = Pharmacokinetics and biodistribution study in mice (IV and PO); assay type: in vivo, BALB/c mice
Procedure: Supplemental Figure 4: Mouse biodistribution of orally-administered 4. Mice were treated with a single dose of 4 by oral gavage (PO, 10 mg/kg). The mice were sacriﬁced at 30 min, 4 h, and 24 h after 4 administration, and the indicated tissues homogenized and analyzed for 4 by HPLC. While serum levels are much lower than […]
and kidney at 0.5 hours. At 4 and 24 h, as in the IV cohort, 4 remains at a higher concentration in the liver than in other tissues. Each data point represents the mean of 3 animals with error bars representing standard deviation (GraphPad Prism).
(also on this page, place not known: Serum Brain Liver Kidney Heart Spleen Lung 0 500 1000 1500 2000 Tissue h h (ng per g tissue) h 0.5 24 4)
(1 picture or pasted object on this page, not shown here)
The adherent monolayers were washed once with Hank’s buﬀered salt solution (Gibco), then inoculated with 100 µL of analyte and 100 µL of the supplemented MEM used to prepare the dilutions. The plates were rocked at 20 ◦C for 90 min, after which the inoculum was removed and nutrient-supplemented primary overlay (1 mL) was added to each well. The overlay was allowed to solidify at 20 ◦C, before returning the cells to the incubator. After 5 d, nutrient-supplemented, neutral red-containing secondary overlay (1 mL) was added to each well and allowed to solidify at 20 ◦C, then the cells were returned to the incubator.
After 1 d, plaques were observed and counted from the underside of the plate by eye.
5.10 Pharmacokinetics and Biodistribution Study
The study was carried out by Sai Life Science, Ltd. All procedures were in accordance with the guidelines provided by the Committee for the Purpose of Control and Supervisions of Experiments on Animals as published in The Gazette of India, December 15, 1998. Prior approval of the Institutional Animal Ethics Committee was obtained before initiation of the […]
18 healthy male BALB/c mice (8 – 12 weeks old) weighing between 20 and 35 g were procured from ACTREC, Mumbai, India. Illumination was controlled to give a cycle of 12 h light and 12 h dark. Temperature and humidity were recorded by an auto-controlled data logging system and maintained at 22± 3◦C and 55± 15% humidity, respectively. Animals were provided laboratory rodent diet (Vetcare India Pvt. Ltd.) and fresh reverse-osmosis, UV-treated water ad libitum. The mice were randomly divided into two groups. One group was treated with 4 intravenously (IV) at a dose of 2 mg/kg, while the other group was treated with an oral (per os, PO) dose of 10 mg/kg. The dosing volume was 5 mL/kg for IV treatment and 10 mL/kg for PO treatment. Blood samples were collected from three mice from each group under light isoﬂurane anaesthesia before dosing and at 0.25, 0.5, 1, 2, 4, 8 and 24 h after dosing. An additional blood sample was taken for the IV group at 0.08 h after dosing. After collection, potassium tetraethylenediamine was added to the sample as an anticoagulant. Plasma was immediately harvested by centrifugation and then stored at –70 ◦C until analysis. At 0.5, 4, and 24 h after dosing, 3 mice from each group

[2] = test system: DENV (serotype 2, strain 16681) in Huh7.5 cells; assay: DENV Huh7.5 antiviral assay (infectious titer by plaque assay); assay type: cell-based, dengue virus; details: MOI 0.1, 48 h, titration of 4 or 50 µm of 3
Procedure: Supplemental Figure 3: Antiviral activity of 4 in human hepatoma Huh7.5 cell line.
(A) Huh7.5 cells were infected with DENV (serotype 2, strain 16681, multiplicity of infection = 0.1) and treated with a titration of ToP-DNJ 4 or 50 µm of tocopherol 3 for 48 h. Infectious virus titer was measured by plaque assay on LLC-MK2 cells. Counts were normalized to 100% for untreated samples.
DENV eﬀect at the concentrations tested. (B) Huh7.5 cells were infected with HCV (JFH-1, multiplicity of infection = 2) and treated with a titration of ToP-DNJ 4 or 50 µm tocopherol 3 for 96 h. Infectious virus titer was measured by TCID50 assay on […]
tested. In both panels, each data point represent the mean of triplicates, with error bars showing standard error of the mean (GraphPad Prism). […]
each well was scored as either positive (≥ 5 stained cells) or negative. TCID50 values were calculated according to the method of Reed and Muench.8 […]
The infectious DENV titres in supernatants collected were evaluated by plaque assay as described previously.9 Brieﬂy, LLC-MK2 cells were seeded in conﬂuent monolayers in a 12-well plate. Four 10-fold dilutions of each supernatant to be analyzed were prepared in minimum essential media (MEM, Gibco), supplemented with 100 µg mL−1 streptomycin, 100 U mL−1 penicillin and 10% (v/v) FCS. […]
After 1 d, plaques were observed and counted from the underside of the plate by eye. […]

[3] = BALB/c mice, oral (PO, 10 mg/kg)
[4] = mice, single dose by oral gavage (PO, 10 mg/kg)

Compound: Cc1c(C)c2c(c(C)c1OCCCCCN1CC(O)C(O)C(O)C1CO)CCC(C)(CCCC(C)CCCC(C)CCCC(C)C)O2 (stereo not drawn) [Compound 4, 5′-tocopheroxypentyl-DNJ]
- change of amount present in the liver between the 4 and 24 h time points ([1]; BALB/c mice): did not decrease
- oral bioavailability ([1]; BALB/c mice): poor oral bioavailability
- maximum blood plasma concentration [1, 3]: 46 nM
- time of maximum blood plasma concentration [1, 3]: 8 h
- tissue in which compound was detected in the highest amounts ([1]; BALB/c mice, oral and intravenous administration): highest amounts in the liver
- half-life ([1]; male, mouse, plasma, BALB/c mice (Figure 3B), read-out: plasma terminal half-life (converted)): 8.79 h
- concentration in the liver relative to other tissues at 4 and 24 h [1, 4]: higher
- tissue levels at 0.5 hours [1, 4]: high levels are achieved in the liver
- anti-DENV effect (infectious virus titer) [2]: neither an anti-DENV nor anti-HCV effect was observed; also recorded: Neither 4 nor 3 showed an anti-
